Results reported in patent publication US6531478B2, “Amino pyrazole derivatives useful for the treatment of obesity and other disorders” (priority 2000, dated 2003).

Biological target: T1, human neuropeptide Y5 receptor (Homo sapiens, UniProt Q15761)
T1 construct: expressed in transfected cells; host or cells: HEK-293, stably transfected, G-418 selected; membranes
T1 sequence (Q15761 1-445): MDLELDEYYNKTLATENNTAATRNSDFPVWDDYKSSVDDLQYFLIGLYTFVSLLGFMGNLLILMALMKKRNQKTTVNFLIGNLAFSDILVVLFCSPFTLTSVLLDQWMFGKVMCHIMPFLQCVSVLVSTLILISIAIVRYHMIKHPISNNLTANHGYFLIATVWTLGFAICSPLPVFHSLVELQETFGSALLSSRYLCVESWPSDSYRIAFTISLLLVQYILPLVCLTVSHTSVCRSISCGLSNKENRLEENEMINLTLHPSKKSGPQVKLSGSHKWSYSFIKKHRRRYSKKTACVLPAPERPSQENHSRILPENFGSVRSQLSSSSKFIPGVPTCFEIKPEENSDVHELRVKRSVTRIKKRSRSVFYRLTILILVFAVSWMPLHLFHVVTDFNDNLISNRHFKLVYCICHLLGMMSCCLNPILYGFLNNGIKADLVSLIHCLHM
Assay: NPY5 HTS centrifugation assay: competition with 125I-PYY for binding to membranes of NPY5-transfected HEK-293 cells
Settings: 3 μM test compound; inhibition of 125I-PYY binding
Procedure: NPY5 HTS Centrifugation Assay
The compounds described in this invention were evaluated for binding to the human neuropeptide Y5 receptor.
The human NPY5 receptor cDNA (Genbank Accession number U66275) was inserted into the vector pClneo (Invitrogen) and transfected into human embryonic kidney cells (HEK-293) via Calcium phosphate method (Cullen 1987). Stably transfected cells were selected with G-418 (600 ug/mL). Stably transfected cells served as the source for the membranes for the NPY5 receptor binding assay.
NPY5-transfected HEK293 cells were grown to confluence in 150 cm^2 culture dishes. Cells were washed once with phosphate-buffered saline (Gibco Cat# 14040-133). Cells were then incubated in phosphate-buffered saline without Calcium and without Magnesium, supplemented with 2 mM EDTA. Cells were incubated for 10 minutes at room temperature and the cells were collected by repetitive pipetting. Cells were formed into pellets and frozen at −80 until needed. Frozen pellets were homogenized with a polytron at full speed for 12 seconds in a homogenization buffer (20 mM Tris HCl, 5 mM EDTA, pH 7.4). Homogenates were centrifuged for 5 minutes at 4° C. at 200 g. Supernatants were transferred to corex tubes and centrifuged for 25 minutes at 28,000 g. Pellets were re-suspended in Binding (20 mM HEPES, 10 mM NaCl, 0.22 mM KH2PO4, 1.3 mM CaCl2, 0.8 mM MgSO4, pH 7.4). Membranes were kept on ice until use.
A competition binding assay, known to those skilled in the art, was used in which the test compounds (aminopyrazoles of formula (I) compete with ^1251I-PYY for binding to cell membranes. In simple terms, less ^125I-PYY bound to the membranes implies that the test compound is a good inhibitor (competitor). Bound ^1251I-PYY is determined by centrifugation the membranes, aspirating supernatant, washing away residual ^125I-PYY and subsequently counting the bound sample in a γ-counter.
Procedure for Radioligand Binding Assay
Compounds to be tested were prepared as 10× stocks in binding buffer and added first to assay tubes (RIA vials, Sarstedt). Twenty (20) μL of each 10× compound stock was pipetted into vials and 80 μL of ^125I-PYY (NEN catalog number NEX240), which had been diluted to a concentration of 200 pM in 0.25% BSA in binding buffer, was added to the compound tubes (final concentration of ^125I-PYY is 80 pM). To each tube was added 100 μL of membranes and the mixture was agitated by pipetting 2 times. Samples were incubated for 1 hr at room temperature. Aluminum cast plates (Sarstedt) containing the vials were centrifuged 10 minutes at 3200 rpm in a Sorvall RT6000. Supernatant was then aspirated. To each vial was added 400 μL PBS and the vial was then aspirated again. Vials were put in carrier polypropylene 12×75 tube and counted in gamma counter (Packard). Non-specific binding was determined in the presence of 300 nM NPY. Percent inhibition of ^125I-PYY binding was calculated by subtracting non-specific binding from the test samples (compounds of formula (I)), taking these counts and dividing by total binding, and multiplying by 100. Inhibitory concentration values (IC50) of compounds that show appreciable inhibition of ^125I-PYY binding were calculated by obtaining percent inhibition of ^125I-PYY binding values at different concentrations of the test compound, and using a graphing program such as GraphPad Prism (San Diego, Calif.) to calculate the concentration of test compound that inhibits fifty-percent of ^125I-PYY binding (Table 2). These operations are known to those skilled in the art.

| SMILES | % Inh NPY5 @ 3 μM [%] |
| --- | --- |
| Cc1ccc(NC(=O)c2ccc(-c3cc(N)n(-c4ccc(C)cc4)n3)cc2)cc1 [Cmpd 33] | 0.00 |
| Nc1cc(-c2ccc(N(S(=O)(=O)c3ccc(F)cc3)S(=O)(=O)c3ccc(F)cc3)cc2)nn1-c1ccccn1 [Cmpd 59] | 0.00 |
| Cc1ccc(-n2nc(-c3ccc(C(=O)Nc4ccccc4)cc3)cc2NS(=O)(=O)c2ccc(C)cc2)cc1 [Cmpd 15] | 4.00 |
| Cc1ccc(-n2nc(-c3ccc(N(S(=O)(=O)c4ccc5ccccc5c4)S(=O)(=O)c4ccc5ccccc5c4)cc3)cc2N)cc1 [Cmpd 27] | 0.00 |
| Cc1ccc(-n2nc(-c3ccc(N(S(=O)(=O)c4cccc(C(F)(F)F)c4)S(=O)(=O)c4cccc(C(F)(F)F)c4)cc3)cc2N)cc1 [Cmpd 26] | 16.00 |

Further lines, results first:

| % Inh NPY5 @ 3 μM [%] | SMILES |
| --- | --- |
| 16.00 | Cc1ccc(-n2nc(-c3ccc(C(=O)O)cc3)cc2NS(=O)(=O)c2ccc(C)cc2)cc1 [Cmpd 21] |
| 19.00 | O=C(NCc1ccccc1)c1ccc(-c2cc(NS(=O)(=O)c3ccccc3)n(-c3ccccc3)n2)cc1 [Cmpd 10] |
| 2.00 | COC(=O)c1ccc(-c2cc(NS(=O)(=O)c3ccccc3)n(-c3ccccc3)n2)cc1 [Cmpd 18] |
| 12.00 | O=C(c1ccc(-c2cc(NS(=O)(=O)c3ccccc3)n(-c3ccccc3)n2)cc1)N1CCc2ccccc2C1 [Cmpd 13] |
| 13.00 | COC(=O)c1ccc(-c2cc(N)n(-c3ccccc3)n2)cc1 [Cmpd 7] |
| 16.00 | Cc1ccc(-n2nc(-c3ccc(N(S(=O)(=O)c4cc(C(F)(F)F)cc(C(F)(F)F)c4)S(=O)(=O)c4cc(C(F)(F)F)cc(C(F)(F)F)c4)cc3)cc2N)cc1 [Cmpd 40] |
| 14.00 | O=C(Nc1cccc2ccccc12)c1ccc(-c2cc(NS(=O)(=O)c3ccccc3)n(-c3ccccc3)n2)cc1 [Cmpd 11] |
| 21.00 | Cc1ccc(-n2nc(-c3ccc(N(S(=O)(=O)c4ccc(C(F)(F)F)cc4)S(=O)(=O)c4ccc(C(F)(F)F)cc4)cc3)cc2N)cc1 [Cmpd 46] |
| 0 | COC(=O)c1ccc(-c2cc(N(S(=O)(=O)c3ccccc3)S(=O)(=O)c3ccccc3)n(-c3ccccc3)n2)cc1 [Cmpd 8] |

Same assay, conditions: 3 μM test compound; inhibition of 125I-PYY binding; read-out: % Inh NPY5 @ 3 μM

| inhibition at 3 µM [%] | SMILES |
| --- | --- |
| 0 | COc1ccc(C(=O)Nc2ccc(-c3cc(N)n(-c4ccc(C)cc4)n3)cc2)cc1 [Cmpd 53, N-[4-[5-amino-1-(4-methylphenyl)-1H-pyrazol-3-yl]phenyl]-4-methoxy-benzamide] |
| 97 | Cc1ccc(-n2nc(-c3ccc(NS(=O)(=O)c4ccccc4)cc3)cc2N)cc1 [Cmpd 37] |
| 82 | Cc1ccc(-n2nc(-c3ccc(NS(=O)(=O)c4ccc(C(F)(F)F)cc4)cc3)cc2N)cc1 [Cmpd 47] |

Same assay, conditions: inhibition of 125I-PYY binding; values in nM; read-out: IC50 hNPY5

| SMILES | IC50 [nM] |
| --- | --- |
| COc1ccc(S(=O)(=O)Nc2ccc(-c3cc(N)n(-c4nccc(C(F)(F)F)n4)n3)cc2)cc1 [Cmpd 86] | 709 |
| Cc1ccc(-n2nc(-c3ccc(NS(=O)(=O)c4ccccc4)cc3)cc2N)cc1 [Cmpd 37] | 25 |
| Nc1cc(-c2ccc(NS(=O)(=O)c3ccc(F)cc3)cc2)nn1-c1ccccn1 [Cmpd 56] | 217 |
| Cc1ccc(-n2nc(-c3ccc(NS(=O)(=O)c4ccccc4N)cc3)cc2N)cc1 [Cmpd 64] | 229 |
| Cc1ccc(S(=O)(=O)Nc2ccc(-c3cc(NS(=O)(=O)c4ccc(C)cc4)n(-c4ccccc4C)n3)cc2)cc1 [Cmpd 1] | 200 |
| COc1ccc(S(=O)(=O)Nc2ccc(-c3cc(N)n(-c4cccc(C)c4)n3)cc2)cc1 [Cmpd 71] | 37 |
| COc1ccc(S(=O)(=O)Nc2ccc(-c3cc(N)n(-c4ccccc4)n3)cc2)cc1 [Cmpd 84] | 100 |
| Cc1ccc(-n2nc(-c3ccc(NS(=O)(=O)c4ccc(C(F)(F)F)cc4)cc3)cc2N)cc1 [Cmpd 47] | 63 |
| Cc1ccc(-n2nc(-c3ccc(NS(=O)(=O)c4cccc(N)c4)cc3)cc2N)cc1 [Cmpd 65] | 303 |
| Nc1cc(-c2ccc(NS(=O)(=O)c3cccc(C(F)(F)F)c3)cc2)nn1-c1ccccn1 [Cmpd 57] | 289 |
| Cc1ccc(-n2nc(-c3ccc(NS(=O)(=O)c4ccc(N(C)C)cc4)cc3)cc2N)cc1 [Cmpd 76] | 162 |
| Cc1ccc(-n2nc(-c3ccc(NS(=O)(=O)c4cccc([N+](=O)[O-])c4)cc3)cc2N)cc1 [Cmpd 62] | 21 |
| Nc1cc(-c2ccc(NS(=O)(=O)c3ccccc3)cc2)nn1-c1ccc(F)cc1 [Cmpd 92] | 28 |

Next, values leading:

| IC50 [nM] | SMILES |
| --- | --- |
| 683 | Nc1cc(-c2ccc(NS(=O)(=O)c3ccccc3)cc2)nn1-c1cc(C(F)(F)F)cc(C(F)(F)F)c1 [Cmpd 90] |
| 40 | CNc1ccc(S(=O)(=O)Nc2ccc(-c3cc(NC)n(-c4ccc(C)cc4)n3)cc2)cc1 [Cmpd 75, 4-(methylamino)-N-[4-[5-(methylamino)-1-(4-methylphenyl)-1H-pyrazol-3-yl]phenyl]-benzensulfonamide] |
| 28 | Cc1ccc(-n2nc(-c3ccc(NS(=O)(=O)c4ccc(C)cc4)cc3)cc2N)cc1 [Cmpd 31] |
| 30 | COc1ccc(S(=O)(=O)Nc2ccc(-c3cc(N)n(-c4cccc(N(C)C)c4)n3)cc2)cc1 [Cmpd 87] |
| 243 | Cc1ccc(-n2nc([C@H]3CC[C@H](CNS(=O)(=O)c4ccc5ccccc5c4)CC3)cc2N)cc1 [Cmpd 77, trans-N-[[4-[5-Amino-1-[4-tolyl]-1H-pyrazol-3-yl]cyclohexyl]methyl]-2-naphthylsulfonamide] |
| 514 | Cc1ccc(-n2nc(-c3ccc(N(S(=O)(=O)c4ccccc4)S(=O)(=O)c4ccccc4)cc3)cc2N)cc1 [Cmpd 22, N-[4-[5-amino-1(4-methylphenyl)-1H-pyrazol-3-yl]phenyl]-N-(phenylsulfonyl)-benzenesulfonamide] |
| 487 | CNc1cc(-c2ccc(NS(=O)(=O)c3ccc(N(C)C)cc3)cc2)nn1-c1ccc(C)cc1 [Cmpd 74] |
| 79 | Cc1ccc(-n2nc(-c3ccc(NS(=O)(=O)c4ccc([N+](=O)[O-])cc4)cc3)cc2N)cc1 [Cmpd 51] |
